According to patent US20100144688A1, “23-Substituted Derivatives of Lupane-type Pentacyclic Triterpenoids” (ADVANCED LIFE SCIENCES, INC., priority 2008, published 2010):

What was measured:
[1] = system: SK-MEL-2 (melanoma); experiment: MTS cell viability assay, SK-MEL-2; format: cell-based
Protocol: (§1) Cells were plated, the evening before treatment, for each treatment on 96-well plates (1×10^4 cells/well) in 100 μL volume per well. Analog solutions were prepared by diluting each test compound in DMSO (10 mM) with the appropriate cell growth media for each individual cell line, or in “Universal Media” if several cell lines were to be assayed in parallel, immediately prior to cell treatment. Universal Media consisted of 5 mL sodium pyruvate (100× liquid stock, MediaTech), 5 mL glucose (100×, 45% liquid stock, MediaTech), 5 mL Penicillin/Streptomycin (100× liquid stock, MediaTech), 10 mL sodium bicarbonate (50× liquid stock, MediaTech), 25 mL Fetal Calf Serum, 1.25 mL insulin (4 mg/mL, Gibco) and 449 mL RPMI media with 2 mM L-glutamine for a total volume of 500 mL.
(§2) Cells were treated by aspirating plating media from each well and adding 80 μL of betulinic acid (control) or each analog solution in serial dilutions to the adherent cells. All treatments were performed in triplicate. Growth media (80 μL) was added to 3 blank wells (no cells) to measure background from the growth media. Growth media alone (no DMSO or test compound) was added to 3 wells containing cells to measure the baseline MTS activity. Vehicle (DMSO) control in serial dilutions, added to cells, was also included to monitor basal toxicity from DMSO. Cells were incubated at 37° C. for 72 h, or 120 h for the OVCAR cell lines. MTS reagent (per 96-well plate) were prepared by combining 2 mL of MTS working solution (Cell Titer Aqueous Non-Radioactive Cell Proliferation Assay, Promega, cat#G1112), 100 μL of 0.92 mg/mL phenazine methosulfate/Dulbecco's PBS and 2.1 mL growth media. MTS reagent (40 μL) was added to each well and incubated at 37° C. for 1.5 to 4 h. Plates were gently shaken by hand until solution in each well appeared homogenous. Absorbances at 490 nm were measured on a Wallac Victor II plate reader at multiple time points following the addition of MTS reagent for each plate. Triplicate absorbance (490 nm) measurements were averaged following background (no cell) subtraction for each drug concentration. Percent Cell Viability was calculated for each drug concentration using the following equation:
(§3) {[Absorbance(analog treated)]/[Absorbance(DMSO treated)]}×100%
(§4) Percent viability (y-axis) was plotted against drug concentration (x-axis) and the resulting graph was used to determine the 50% inhibitory concentration (IC50) for each drug.
(§5) Cytotoxicity dose response for the synthesized triterpenoid derivatives in SK-MEL-2 (melanoma), A-375 (melanoma), Daoy (glioblastoma), LN-229 (glioblastoma), OVCAR-3 (ovarian carcinoma), HT-29 (colon carcinoma), MCF-7 (breast carcinoma) cell lines using the standard MTS assay (described above) is summarized in Table 1.

[2] = system: Daoy (glioblastoma); experiment: MTS cell viability assay, Daoy; format: cell-based; conditions: 72 h incubation
Protocol: as §1, §2, §3, §4, §5

[3] = system: A-375 (melanoma); experiment: MTS cell viability assay, A-375; format: cell-based
Protocol: as §1, §2, §3, §4, §5

[4] = system: LN-229 (glioblastoma); experiment: MTS cell viability assay, LN-229; format: cell-based
Protocol: as §1, §2, §3, §4, §5

[5] = system: OVCAR-3 (ovarian carcinoma); experiment: MTS cell viability assay, OVCAR-3; format: cell-based; conditions: 120 h for the OVCAR cell lines
Protocol: as §1
Cells were treated by aspirating plating media from each well and adding 80 μL of betulinic acid (control) or each analog solution in serial dilutions to the adherent cells. […] Absorbances at 490 nm were measured on a Wallac Victor II plate reader at multiple time points following the addition of MTS reagent for each plate. Triplicate absorbance (490 nm) measurements were averaged following background (no cell) subtraction for each drug concentration. Percent Cell Viability was calculated for each drug concentration using the following equation:
{[Absorbance(analog treated)]/[Absorbance(DMSO treated)]}×100% […]

[6] = system: HT-29 (colon carcinoma); experiment: MTS cell viability assay, HT-29; format: cell-based
Protocol: as §1, §2, §3, §4, §5

[7] = system: MCF-7 (breast carcinoma); experiment: MTS cell viability assay, MCF-7; format: cell-based
Protocol: as §1, §2, §3, §4, §5

[8] = system: human colon carcinoma cell lines (Caco-2); conditions: Caco-2, at approximately 60 minutes; cited from earlier work
[9] = system: murine melanoma B16 cells; conditions: cited from earlier work
[10] = system: human leukemia HL-60 cells; conditions: by decrease in telomerase activity and down-regulation of bcl-2; cited from earlier work
[11] = Homo sapiens, SK-MEL-2, 72 h incubation
[12] = Homo sapiens, A-375, 72 h incubation
[13] = Homo sapiens, LN-229, 72 h incubation
[14] = Homo sapiens, HT-29, 72 h incubation
[15] = Homo sapiens, MCF7, 72 h incubation

| SMILES | IC50 [1, 11] [µM] | IC50 ([2]; Homo sapiens, Daoy) [µM] | further results |
| --- | --- | --- | --- |
| C=C(CO)[C@@H]1CC[C@]2(CO)CC[C@]3(C)[C@H](CC[C@@H]4[C@@]5(C)CCC(N)C(C)(CO)[C@@H]5CC[C@]43C)[C@@H]12 (stereo partly drawn) [Compound 44b] | 17 | 18 |  |
| C=C(CO)[C@@H]1CC[C@]2(COC(C)=O)CC[C@]3(C)[C@H](CC[C@@H]4[C@@]5(C)CC[C@H](O)C(C)(COC(C)=O)[C@@H]5CC[C@]43C)[C@@H]12 (stereo partly drawn) [Compound 43e] | 16 | 16 |  |
| C=C(C)[C@@H]1CC[C@]2(C#N)CC[C@]3(C)[C@H](CC[C@@H]4[C@@]5(C)CCC(N)C(C)(CO)[C@@H]5CC[C@]43C)[C@@H]12 (stereo partly drawn) [Compound 37] | 14 | 17 |  |
| C=C(C)[C@@H]1CC[C@]2(CO)CC[C@]3(C)[C@H](CC[C@@H]4[C@@]5(C)CCC(NC(C)=O)C(C)(CO)[C@@H]5CC[C@]43C)[C@@H]12 (stereo partly drawn) [Compound 27] | 64 | > 75 |  |
| C=C(C)[C@@H]1CC[C@]2(CO)CC[C@]3(C)[C@H](CC[C@@H]4[C@@]5(C)CCC(=NOC(C)=O)C(C)(COC(C)=O)[C@@H]5CC[C@]43C)[C@@H]12 (stereo partly drawn) [Compound 15b] | 35 | 34 |  |
| C=C(C)[C@@H]1CC[C@]2(C(=O)O)CC[C@]3(C)[C@H](CC[C@@H]4[C@@]5(C)CC[C@H](O)C(C)(C)[C@@H]5CC[C@]43C)[C@@H]12 [Compound 2, betulinic acid, reference compound] |  |  | IC50 ([1]; 72 h incubation): 33 µM; IC50 ([3]; 72 h incubation): 51 µM; IC50 [2]: 31 µM; IC50 ([4]; 72 h incubation): 61 µM; IC50 [5]: 59 µM; IC50 ([6]; 72 h incubation): 37 µM; IC50 ([7]; 72 h incubation): 50 µM |
| C=C(C)[C@@H]1CC[C@]2(C=NO)CC[C@]3(C)[C@H](CC[C@@H]4[C@@]5(C)CCC(=NO)C(C)(CO)[C@@H]5CC[C@]43C)[C@@H]12 (stereo partly drawn) [Compound 30] | 3 | 5 | IC50 [3, 12]: 4 µM; IC50 [4, 13]: 16 µM; IC50 [6, 14]: 13 µM; IC50 [7, 15]: < 2 µM |
| C=C(C)[C@@H]1CC[C@]2(C#N)CC[C@]3(C)[C@H](CC[C@@H]4[C@@]5(C)CCC(=NOC(C)=O)C(C)(COC(C)=O)[C@@H]5CC[C@]43C)[C@@H]12 (stereo partly drawn) [Compound 35] | 24 | 31 |  |
| C=C(C)[C@@H]1CC[C@]2(C(=O)O)CC[C@]3(C)[C@H](CC[C@@H]4[C@@]5(C)CCC(N)C(C)(CO)[C@@H]5CC[C@]43C)[C@@H]12 (stereo partly drawn) [Compound 22] | 36 | 38 |  |
| C=C(CO)[C@@H]1CC[C@]2(C#N)CC[C@]3(C)[C@H](CC[C@@H]4[C@@]5(C)CCC(N)C(C)(CO)[C@@H]5CC[C@]43C)[C@@H]12 (stereo partly drawn) [Compound 44d] | 32 | 73 |  |
| C=C(C)[C@@H]1CC[C@]2(CO)CC[C@]3(C)[C@H](CC[C@@H]4[C@@]5(C)CCC(N)C(C)(CO)[C@@H]5CC[C@]43C)[C@@H]12 (stereo partly drawn) [Compound 23] | 2 | 2 | IC50 [3, 12]: 5 µM; IC50 [4, 13]: 15 µM; IC50 [6, 14]: 6 µM; IC50 [7, 15]: 5 µM |
| C=C(C)[C@@H]1CC[C@]2(C(=O)O)CC[C@]3(C)[C@H](CC[C@@H]4[C@@]5(C)CCC(=O)C(C)(CO)[C@@H]5CC[C@]43C)[C@@H]12 (stereo partly drawn) [Compound 4, 23-hydroxybetulonic acid, reference compound] | 33 | 59 |  |
| C=C(CO)[C@@H]1CC[C@]2(C(=O)O)CC[C@]3(C)[C@H](CC[C@@H]4[C@@]5(C)CCC(N)C(C)(CO)[C@@H]5CC[C@]43C)[C@@H]12 (stereo partly drawn) [Compound 44a] | > 75 | > 75 |  |
| C=C(C)[C@@H]1CC[C@]2(COC(C)=O)CC[C@]3(C)[C@H](CC[C@@H]4[C@@]5(C)CCC(NC(C)=O)C(C)(COC(C)=O)[C@@H]5CC[C@]43C)[C@@H]12 (stereo partly drawn) [Compound 25] | 36 | 38 |  |
| C=C(C)[C@@H]1CC[C@]2(COC(C)=O)CC[C@]3(C)[C@H](CC[C@@H]4[C@@]5(C)CCC(=O)C(C)(COC(C)=O)[C@@H]5CC[C@]43C)[C@@H]12 (stereo partly drawn) [Compound 38] | 18 | 31 |  |
| C=C(CO)[C@@H]1CC[C@]2(COC(C)=O)CC[C@]3(C)[C@H](CC[C@@H]4[C@@]5(C)CCC(=O)C(C)(COC(C)=O)[C@@H]5CC[C@]43C)[C@@H]12 (stereo partly drawn) [Compound 40c] | 33 | 56 |  |
| C=C(C)[C@@H]1CC[C@]2(C(=O)O)CC[C@]3(C)[C@H](CC[C@@H]4[C@@]5(C)CC[C@H](O)C(C)(CO)[C@@H]5CC[C@]43C)[C@@H]12 (stereo partly drawn) [Compound 1, 23-Hydroxybetulinic acid] | > 75 | > 75 | intracellular concentration (cellular uptake) [8]: 906.7 μM/mg protein; growth arrest and apoptotic cell death, B16 ([9]; by increase in reactive oxidative species and dissipation of mitochondrial membrane potential): induces growth arrest and apoptotic cell death; potency against murine melanoma B16 cells ([9]; compared with betulinic acid (2)): increased potency; growth arrest and apoptotic cell death, HL-60 [10]: induces growth arrest and apoptotic cell death |
| C=C(C=O)[C@@H]1CC[C@]2(COC(C)=O)CC[C@]3(C)[C@H](CC[C@@H]4[C@@]5(C)CCC(=O)C(C)(COC(C)=O)[C@@H]5CC[C@]43C)[C@@H]12 (stereo partly drawn) [Compound 49a] | 5 | 9 | IC50 [3, 12]: 5 µM; IC50 [4, 13]: 15 µM; IC50 [6, 14]: 5 µM; IC50 [7, 15]: 4 µM |
| C=C(C)[C@@H]1CC[C@]2(CO)CC[C@]3(C)[C@H](CC[C@@H]4[C@@]5(C)CC[C@H](O)C(C)(CO)[C@@H]5CC[C@]43C)[C@@H]12 (stereo partly drawn) [Compound 5, 23-hydroxybetulin, reference compound] | > 75 | 65 |  |
| C=C(C)[C@@H]1CC[C@]2(CO)CC[C@]3(C)[C@H](CC[C@@H]4[C@@]5(C)CCC(=O)C(C)(CO)[C@@H]5CC[C@]43C)[C@@H]12 (stereo partly drawn) [Compound 18b] | > 75 | 34 |  |
| C=C(C)[C@@H]1CC[C@]2(C=NO)CC[C@]3(C)[C@H](CC[C@@H]4[C@@]5(C)CCC(=NOC(C)=O)C(C)(COC(C)=O)[C@@H]5CC[C@]43C)[C@@H]12 (stereo partly drawn) [Compound 29] | 16 | 14 |  |
| C=C(CO)[C@@H]1CC[C@]2(C(=O)O)CC[C@]3(C)[C@H](CC[C@@H]4[C@@]5(C)CC[C@H](O)C(C)(CO)[C@@H]5CC[C@]43C)[C@@H]12 (stereo partly drawn) [Compound 43a] | > 75 | > 75 |  |
| C=C(CO)[C@@H]1CC[C@]2(C#N)CC[C@]3(C)[C@H](CC[C@@H]4[C@@]5(C)CCC(=NOC(C)=O)C(C)(COC(C)=O)[C@@H]5CC[C@]43C)[C@@H]12 (stereo partly drawn) [Compound 39d] | 14 | 33 | melting point: 141 to 143 °C |
| C=C(C)[C@@H]1CC[C@]2(COC(C)=O)CC[C@]3(C)[C@H](CC[C@@H]4[C@@]5(C)CCC(=O)C(C)(CO)[C@@H]5CC[C@]43C)[C@@H]12 (stereo partly drawn) [Compound 18c] | 29 | 16 |  |
| C=C(C)[C@@H]1CC[C@]2(COC(C)=O)CC[C@]3(C)[C@H](CC[C@@H]4[C@@]5(C)CCC(=NO)C(C)(CO)[C@@H]5CC[C@]43C)[C@@H]12 (stereo partly drawn) [Compound 17c] | 16 | 16 |  |
